Measurements published in patent US11020494B2, “Animal models for nonalcoholic fatty liver disease” (CROWN BIOSCIENCE INC. (TAICANG), priority 2017, dated 2021).

Assays:
FATZO mice [1] = test: Effect of leptin on food intake in FATZO mice; assay type: in vivo, mouse; conditions: leptin 10 mg/kg, first 4 hours of darkness
Experimental: Two age groups of male FATZO mice were selected for leptin levels and the effect of leptin on food intake. Additional age matched groups of C57BL/6 were bled for leptin levels. Animals were acclimated to reverse light cycle for 7 days before being put on protocol. […] Serum was prepared from tail blood and leptin levels were analyzed (Meso Scale Discovery, K152BYC, Rockville, Md., USA). After blood collection, animals were given saline or leptin injections (10 mg/kg) and food intake data was recorded for the first 4 hours of darkness.

FATZO mice [2] = conditions: for serum glucose concentrations in the fed state: after 8 weeks, vehicle 315.6±35.4; for serum glucose concentrations in the fed state / body weight change over the 8-week observation period: rosiglitazone 10 mg/kg/day, metformin 150 mg/kg/day; for body weight change over the 8-week observation period: oral once daily 8 weeks, vehicle 1.8±0.2
Experimental: Male FATZO mice (9 weeks of age, n=40) were maintained on Purina 5008 regular rodent chow and reverse osmosis water ad libitum. Mice were housed 3 per cage and acclimated to study environment for 7 days prior to study. At 10 weeks of age, mice were fasted for 6 hours, body weight was recorded and an OGTT performed. Glucose and insulin were assayed at 0, 30, 60, 90, 120 and 180 minutes following a 2 g/kg glucose load. Glucose concentrations were obtained from StatStrip glucometer and insulin was assayed at each time-point using the insulin kit mentioned above. Insulin sensitivity index (ISI) was calculated using a formula modified from Matsuda and DeFronzo [39] by changing the numerator to 10,000 and using glucose and insulin AUCs instead of average glucose and insulin levels ([…]/square root of [fasting glucose x fasting insulin]×[glucose AUC×insulin AUC during OGTT]).
Animals were randomized into 3 groups of 10 based on baseline ISI and body weight. […] Compounds were administered orally once daily by gavage for 8 weeks. Body weight was recorded weekly.
Following 8 weeks of treatment, OGTT was repeated one hour after compound administration. Whole blood was taken from tail clip and processed to serum. Treatment effects on glucose disposal, fed serum glucose, HbAlc, and ISI were compared to vehicle.

[3] = after 8 weeks of administration, compared to vehicle

| Compound | food intake after leptin injection (FATZO mice [1]; FATZO at 10 weeks of age) | food consumption after leptin injection (FATZO mice [1]; young FATZO animals (5 weeks)) | serum glucose concentrations in the fed state (FATZO mice [2]) [mg/dL] | body weight change over the 8-week observation period (FATZO mice [2]) [g] | AUC for glucose during OGTT (FATZO mice [2]; [3]) | calculated insulin sensitivity index (ISI) (FATZO mice [2]; [3]) | insulin AUC during OGTT (FATZO mice [2]; [3]) |
| --- | --- | --- | --- | --- | --- | --- | --- |
| leptin | no significant reduction | significantly reduced |  |  |  |  |  |
| CN(CCOc1ccc(CC2SC(=O)NC2=O)cc1)c1ccccn1 (stereo not drawn) [rosiglitazone] |  |  | 233.3 ± 7.7 | 5.3 ± 0.7 |  |  |  |
| CN(C)C(=N)N=C(N)N [metformin] |  |  | 250.0 ± 12.8 | -0.2 ± 0.6 | significant reductions | significant improvements | significant improvements |
